# Patent publication US20110008466A1, “METHODS AND COMPOSITIONS FOR ALTERING CELL FUNCTION” (ALLTECH, INC., priority 2006, published 2011)
# Columns and labels:
# Gadd45g1p = test: Microarray gene expression, mouse intestine; format: in vivo, mice; conditions: p<0.05
# Text: (§1) Animal Care. Male C57BL/6J mice were housed singly and started on the experimental diets described below immediately after weaning (21 days of age). The mice were maintained in the Shared Aging Rodent Facility at the William S. Middleton Memorial Veterans Administration Medical Center (Madison, Wis.). Temperature and humidity were maintained at constant levels. Room light was controlled to provide 12-hr cycles of light and dark.
# (§2) Experimental diets were created by Harlan Teklad (Madison, Wis.). Selenium content of the diets was determined by Covance Inc. (Madison, Wis.). Five (5) animals were included in each of the following treatment groups: a diet deficient in selenium (SD); a diet supplemented with selenomethionine (SM, obtained from Sigma, St. Louis, Mo.) such that the final selenium content of the diet was one (1) part per million; a diet supplemented with sodium selenite (SS, Sigma) such that the final concentration of selenium in this diet was one (1) part per million; or a diet supplemented with the yeast selenium SEL-PLEX (SP, Alltech, Lexington, Ky.), such that the final concentration of selenium in this diet was one (1) part per million. SEL-PLEX. Mice were provided with water and their respective diet ad libitum for 100 days. Diets were stored at the dark at 4° C. and fresh diet was added to feeder twice weekly.
# (§3) Tissue sample preparation and microarray analysis. Mice were killed at 100 days of age by cervical dislocation. For intestinal expression studies, the intestine was flushed twice with saline solution and small intestine was measured and divided in three equal segments. A 3-cm region of the middle segment of the small intestine corresponding to the jejunum (˜300 mg of tissue) was cut and rinsed again with physiological saline to completely remove contents, flash frozen in liquid nitrogen and stored at −80° C. For brain (e.g., cerebral cortex) studies, the cerebral cortex was separated from the surrounding brain tissue and was flash frozen in liquid nitrogen and stored at −80° C.
# (§4) Total RNA was isolated from using the guanidinium isothiocyanate method of TRIZOL (Life Technologies, Grand Island, N.Y.) and individual samples were used for gene expression profiles. Total RNA was cleaned up by RNeasy Mini kit (Qiagen, Valencia, Calif.). Target RNA was prepared by converting […] total RNA into double-strand cDNA using GeneChip Expression 3′-Amplification Reagents One-Cycle cDNA Synthesis Kit (Affymetrix, Santa Clara, Calif.) with a T7-(dT)24 primer incorporating a T7 RNA polymerase promoter. After cleaning up double-strand cDNA using Genechip Sample Cleanup Module (Affymetrix, Santa Clara, Calif.), biotin-labeled cRNA was synthesized from double-strand cDNA using GeneChip Expression 3′-Amplification Reagents for IVT Labeling (Affymetrix, Santa Clara, Calif.). The biotin-labeled cRNA was cleaned up using Genechip Sample Cleanup Module and was fragmented by heating (35 min at 94° C.).
# (§5) Fifteen (15) μg of cRNA fragments were hybridized (16 h at 45° C.) to Mouse Genome 430 2.0 Array (Affymetrix, Santa Clara, Calif.) using GeneChip Hybridization Oven 640. After hybridization, the gene chips were automatically washed and stained with streptavidin-phycoerythrin biotinylated anti-streptavidin using Affymetrix GeneChip Fluidics Station 450. The DNA chips were scanned with Affymetrix GeneChip Scanner 3000 (Affymetrix, Santa Clara, Calif.) to detect the cell signal intensities by laser. All calculations were performed with Affymetrix GeneChip Operating Software (GCOS) version 1.3 after scanning
# (§6) • 1. The spreadsheet containing probe set identifiers and signal intensity values was opened in Microsoft Excel (version 11.1.1 for the Macintosh OS-X operating system) and summary statistics were generated (mean signal intensity for each treatment group, standard error of the mean). Two-tailed t-tests (equal variance) were performed for the following treatment groups: SM vs. SD, SS vs. SD, and SP vs. SD. […]
# Glyoxalase 1 (Glo1) = test: Microarray gene expression, mouse intestine; format: in vivo, mice; conditions: 1 ppm Se diet 100 days vs Se-deficient diet, p<0.01
# Text: as §1, §2, §3, §4, §5, §6
# [1] = tested on: Growth arrest and DNA-damage-inducible 45 beta (Gadd45b); test: Microarray gene expression, mouse intestine; format: in vivo, mice; conditions: intestinal tissue; vs Se-deficient; minus = down
# Text: as §1, §2, §3, §4, §5, §6
# [2] = tested on: Growth arrest and DNA-damage-inducible 45 gamma (Gadd45g); test: Microarray gene expression, mouse intestine; format: in vivo, mice; conditions: vs Se-deficient diet, minus = down
# Text: as §1, §2, §3, §4, §5, §6
# [3] = tested on: LIM homeobox protein 8 gene (Lhx8); test: Microarray gene expression, mouse intestine; format: in vivo, mice; conditions: vs Se-deficient subjects, p<0.01
# Text: as §1, §2, §3, §4, §5, §6
# Neurogenin 3 (Neurog3) = test: Microarray gene expression, mouse intestine; format: in vivo, mice; conditions: vs Se-deficient diet
# Text: as §1, §2, §3, §4, §5, §6
# Prohibitin (Phb) = test: Microarray gene expression, mouse intestine; format: in vivo, mice; conditions: vs Se-deficient diet, p<0.05
# Text: as §1, §2, §3, §4, §5, §6
# SelR (Selenoprotein X1) = test: Microarray gene expression, mouse intestine; format: in vivo, mice; conditions: 1 ppm Se diet 100 days vs Se-deficient diet
# Text: as §1, §2, §3, §4, §5, §6
# Selenoprotein W (SelW) = test: Microarray gene expression, mouse intestine; format: in vivo, mice; conditions: 1 ppm Se diet 100 days vs Se-deficient diet
# Text: as §1, §2, §3, §4, §5, §6
# [4] = tested on: Type 1 iodothyronine deiodinase; test: Microarray gene expression, mouse intestine; format: in vivo, mice; conditions: 1 ppm Se diet 100 days vs Se-deficient diet
# Text: as §1, §2, §3, §4, §5, §6
# selenoprotein N1 (Sepn1) = test: Microarray gene expression, mouse intestine; format: in vivo, mice; conditions: 1 ppm Se diet 100 days vs Se-deficient diet, p<0.02
# Text: as §1, §2, §3, §4, §5, §6
# [5] = tested on: sprouty homolog 2 gene (Spry2); test: Microarray gene expression, mouse intestine; format: in vivo, mice; conditions: relative to Se-deficient controls
# Text: as §1, §2, §3, §4, §5, §6
# [6] = tested on: transforming growth factor beta 2 (TGF-β2); test: Microarray gene expression, mouse intestine; format: in vivo, mice; conditions: vs controls
# Text: as §1, §2, §3, §4, §5, §6
# [7] = tested on: type II iodothyronine deiodinase (Dio2); test: Microarray gene expression, mouse intestine; format: in vivo, mice; conditions: 1 ppm Se diet 100 days vs Se-deficient diet
# Text: as §1, §2, §3, §4, §5, §6
# GST genes = test: Microarray gene expression, mouse intestine (summary of Table 3); format: in vivo, mice; conditions: vs Se-deficient diet
# Text: as §1
# as §2, with “Mice were provided with water and their respective diet ad libitum for 100 days. Diets were stored at the dark at 4° C. and fresh diet was added to feeder twice weekly.” left out
# (§7) Tissue sample preparation and microarray analysis. […] For intestinal expression studies, the intestine was flushed twice with saline solution and small intestine was measured and divided in three equal segments. […]
# [8] = tested on: complement component genes; test: Microarray gene expression, mouse cerebral cortex (summary of Table 6); format: in vivo, mice; conditions: p<0.01
# Text: as §1
# as §2, with “Mice were provided with water and their respective diet ad libitum for 100 days. Diets were stored at the dark at 4° C. and fresh diet was added to feeder twice weekly.” left out
# as §7
# CORS-26 = test: Microarray gene expression, mouse cerebral cortex; format: in vivo, mice; conditions: Example 10 (brain); vs Se-deficient diet
# Text: as §1, §2, §3, §4, §5, §6
# Gadd45b [9] = test: Microarray gene expression, mouse cerebral cortex; format: in vivo, mice; conditions: minus = down; for Fold change Gadd45b gene expression, ctx (Table 14): cortex tissue, vs Se-deficient
# Text: as §1, §2, §3, §4, §5, §6
# [10] = tested on: cyclin-dependent kinase 5 (Cdk-5); test: Microarray gene expression, tau kinases, brain; format: in vivo, mice; conditions: vs non-selenium supplemented diet, minus = down, * significant
# Text: as §1, §2, §3
# (§8) Total RNA was isolated from using the guanidinium isothiocyanate method of TRIZOL (Life Technologies, Grand Island, N.Y.) and individual samples were used for gene expression profiles. Total RNA was cleaned up by RNeasy Mini kit (Qiagen, Valencia, Calif.). Target RNA was prepared by converting […] total RNA into double-strand cDNA using GeneChip Expression 3′-Amplification Reagents One-Cycle cDNA Synthesis Kit (Affymetrix, Santa Clara, Calif.) with a T7-(dT)24 primer incorporating a T7 RNA polymerase promoter. […]
# [11] = tested on: glycogen synthase kinase-3-beta (GSK-3β); test: Microarray gene expression, tau kinases, brain; format: in vivo, mice; conditions: vs non-selenium supplemented diet, minus = down, * significant
# Text: as §1, §2, §3, §8
# Gadd45b [12] = test: Gene expression, liver tissue; format: in vivo, mice; conditions: vs Se-deficient, minus = down
# Text: as §1
# as §2, with “Diets were stored at the dark at 4° C. and fresh diet was added to feeder twice weekly.” left out
# (§9) • 1. […] Additionally, a “signal intensity score” was calculated for each probe set as the sum of the signal intensities for all chips (N=20). • 2. […]
# Gadd45b [13] = test: Gene expression, skeletal muscle tissue; format: in vivo, mice; conditions: vs Se-deficient, minus = down
# Text: as §1
# as §2, with “Diets were stored at the dark at 4° C. and fresh diet was added to feeder twice weekly.” left out
# as §9
# [14] = tested on: Cu chaperone for SOD (CCS); test: Microarray gene expression, mouse intestine; format: in vivo, mice; conditions: 1 ppm Se diet 100 days vs Se-deficient diet
# Text: as §1, §2, §3, §4, §5, §6
# SOD1 = test: Microarray gene expression, mouse intestine; format: in vivo, mice; conditions: 1 ppm Se diet 100 days vs Se-deficient diet
# Text: as §1, §2, §3, §4, §5, §6
# Thioredoxin Reductase 1 = test: Microarray gene expression, mouse intestine; format: in vivo, mice; conditions: 1 ppm Se diet 100 days vs Se-deficient diet, all p <0.01
# Text: as §1, §2, §3, §4, §5, §6
# calpain-5 = test: Expression level of calpain genes after selenium administration; format: in vivo; conditions: tissue not stated; minus = down; asterisk not explained
# Procedure: Compositions and methods of the present invention were analyzed to determine if they were capable of altering the expression levels of calpain genes. Compositions comprising various forms of selenium (e.g., SeM, Sod-sel, and SEL-PLEX) were administered to subjects and the expression levels of calpain genes monitored. The expression level of calpain-5 was altered by treatment in the following ways: free selenomethionine (SM)+1.32*, Sod-sel −1.07, SEL-PLEX −1.44*.
# [15] = tested on: Complement component 1, q subcomponent binding protein, C1qbp; test: Microarray gene expression, mouse cerebral cortex; format: in vivo, mice; conditions: vs Se-deficient diet, minus = down, * = significant p<0.01
# Text: as §1, §2, §3, §4, §5, §6
# [16] = tested on: Complement component 1, q subcomponent, beta polypeptide, C1qbp; test: Microarray gene expression, mouse cerebral cortex; format: in vivo, mice; conditions: vs Se-deficient diet, minus = down, * = significant p<0.01
# Text: as §1, §2, §3, §4, §5, §6
# [17] = tested on: Gadd45g1p (Growth arrest and DNA-damage inducible 45 gamma interacting protein); test: Microarray gene expression, mouse cerebral cortex; format: in vivo, mice; conditions: brain; minus = down; * significant relative to Se-deficient animals
# Text: as §1, §2, §3, §4, §5, §6
smiles,measurement,setting,value
"C[Se]CC[C@H](N)C(=O)O [SeM, selenomethionine]",expression of Gadd45g1p in intestinal tissue,Gadd45g1p,decreased expression
same,fold reduction of Glo1 expression,Glyoxalase 1 (Glo1),not significantly affected
same,"Fold change Gadd45b gene expression, int (Table 14)",[1],−1.07 fold
same,FC Gadd45g expression (Table 2),[2],−1.5 (p < 0.05) fold
same,fold upregulation of Lhx8 expression,[3],not significantly different
same,fold upregulation of Neurog3 expression,Neurogenin 3 (Neurog3),no significant alteration
same,fold upregulation of Prohibitin (Phb) expression,Prohibitin (Phb),1.6 fold
same,fold upregulation of SelR gene,SelR (Selenoprotein X1),not significantly affected
same,fold upregulation of Selenoprotein W (SelW) expression,Selenoprotein W (SelW),not significantly altered
same,fold increase in expression of Type 1 iodothyronine deiodinase,[4],2.0 fold
same,fold increase of selenoprotein N1 (Sepn1) gene expression,selenoprotein N1 (Sepn1),not significantly affected
same,fold reduction in Spry2 gene expression,[5],no alteration
same,fold upregulation of TGF-β2 expression,[6],not altered
same,fold down-regulation of Dio2 expression,[7],no ability to alter
same,alteration of expression pattern of GST genes (summary in words),GST genes,no alteration
same,down-regulation of complement component genes (summary in words),[8],did not provide a statistically significant alteration
same,fold reduction in expression of CORS-26,CORS-26,no alteration
same,"Fold change Gadd45b gene expression, ctx (Table 14)",Gadd45b [9]; listed as Selenomethionine,−1.26 fold
same,"Fold change Gadd45b gene expression, ctx (Table 14)",Gadd45b [9]; listed as selenomethionine,significant reduction
same,FC CdK5 gene expression,[10]; listed as SM,−1.00 fold
same,FC GsKβ3 (GSK-3β) gene expression,[11]; listed as SM,−1.10 fold
same,"Fold change Gadd45b gene expression, liv (Table 14)",Gadd45b [12],1.24 fold
same,"Fold change Gadd45b gene expression, skm (Table 14)",Gadd45b [13],1.02 fold
"O=[Se](O)O [Sod-sel, sodium selenite]",fold enhancement in expression of Cu chaperone for SOD (CCS),[14],1.28 fold
same,"Fold change Gadd45b gene expression, int (Table 14)",[1],1.08 fold
same,FC Gadd45g expression (Table 2),[2],−2.0 (p < 0.01) fold
same,fold enhanced expression of SOD1,SOD1,1.92 fold
same,fold upregulation of SelR gene,SelR (Selenoprotein X1),1.3 fold
same,fold upregulation of Selenoprotein W (SelW) expression,Selenoprotein W (SelW),5.1 fold
same,fold increase in expression of the Thioredoxin Reductase 1 gene,Thioredoxin Reductase 1,1.7 fold
same,fold increase in expression of Type 1 iodothyronine deiodinase,[4],2.8 fold
same,expression level of calpain-5 altered by treatment,calpain-5,−1.07
same,FC C1qbp (C1q binding protein) expression,[15],1.11 fold
same,FC C1q beta polypeptide (printed C1qbp) expression,[16],−1.35 fold
same,FC Gadd45b expression (Table 11),"Gadd45b [9]; brain, * significant relative to Se-deficient animals",−1.39* fold
same,"Fold change Gadd45b gene expression, ctx (Table 14)",Gadd45b [9],−1.33 fold
same,FC Gadd45g1p expression (Table 11),[17],−1.12 fold
same,FC CdK5 gene expression,[10]; listed as SS,−1.13 fold
same,FC GsKβ3 (GSK-3β) gene expression,[11]; listed as SS,−1.63* fold
same,"Fold change Gadd45b gene expression, liv (Table 14)",Gadd45b [12],1.25 fold
same,"Fold change Gadd45b gene expression, skm (Table 14)",Gadd45b [13],−2.42 fold
